Laboratory results as given in US8034799B2, “Preventing and/or treating cardiovascular disease and/or associated heart failure” (Philera New Zealand Limited, priority 2002, dated 2011).
Read-outs that look alike come from different tables or passages of the source.

Experiments:
[1] = test system: diabetic (STZ) and nondiabetic male Wistar rats
Source text: Nondiabetic animals received an equivalent volume of saline.
All animals were fasted overnight prior to surgery but continued to have ad libitum access to deionized water. […] The femoral artery and vein were cannulated with a solid-state blood pressure transducer (Mikrotip™ 1.4F, Millar Instruments, Texas, USA) and a saline filled PE 50 catheter respectively. The ureters were exposed via a midline abdominal incision, cannulated using polyethylene catheters (external diameter 0.9 mm, internal diameter 0.5 mm) and the wound sutured closed. The trachea was cannulated and the animal ventilated at 70-80 breaths·min^−1 with air supplemented with O2 (Pressure Controlled Ventilator, Kent Scientific, Connecticut, USA). The respiratory rate and end-tidal pressure (10-15 cm H2O) were adjusted to maintain end-tidal CO2 at 35-40 mm Hg (SC-300 CO2 Monitor, Pryon Corporation, Wisconsin, USA). Body temperature was maintained at 37° C. throughout surgery and the experiment by a heating pad. Estimated fluid loss was replaced with intravenous administration of 154 mmol·l^−1 NaCl solution at a rate of 5 ml·kg^−1·h^−1.
(§1) Following surgery and a 20 min stabilization period, the experimental protocol was started. Trientine was administered intravenously over 60 s in hourly doses of increasing concentration (0.1, 1.0, 10 and 100 mg·kg^−1 in 75 μl saline followed by 125 μl saline flush). Control animals received an equivalent volume of saline. Urine was collected in 15 min aliquots throughout the experiment in pre-weighed polyethylene epindorph tubes. At the end of the experiment a terminal blood sample was taken by cardiac puncture and the separated serum stored at −80° C. until future analysis. Hearts were removed through a rapid mid-sternal thoracotomy and processed as described below.
Mean arterial pressure (MAP), heart rate (HR, derived from the MAP waveform) oxygen saturation (Nonin 8600V Pulse Oximeter, Nonin Medical Inc., Minnesota, USA) and core body temperature, were all continuously monitored throughout the experiment using a PowerLab/16s data acquisition module (AD Instruments, Australia).

[2] = test system: STZ diabetic and normal Wistar rats
Procedure: On the last day of the experiment, animals were anesthetized (5% halothane and 2 L·min^−1 O2), and heparin (500 IU·kg^−1) (Weddel Pharmaceutical Ltd., London) administered intravenously via tail vein. […] Hearts were then placed in the isolated perfused working heart apparatus.
The aortic root of the heart was immediately ligated to the aortic cannula of the perfusion apparatus. Retrograde (Langendorff) perfusion at a hydrostatic pressure of 100 cm H2O and at 37° C. was established and continued for 5 min while cannulation of the left atrium via the pulmonary vein was completed. The non-working (Langendorff) preparation was then converted to the working heart model by switching the supply of perfusate buffer from the aorta to the left atrium at a filling pressure of 10 cm H2O. […] The perfusion solution was Krebs-Henseleit bicarbonate buffer (mM: KCl 4.7, CaCl2 2.3, KH2PO4 1.2, MgSO4 1.2, NaCl 118, and NaHCO3 25), pH 7.4 containing 11 mM glucose and it was continuously gassed with 95% O2:5% CO2. The buffer was also continuously filtered in-line (initial 8 μm, following 0.4 μm cellulose acetate filters; Sartorius, Germany). The temperature of the entire perfusion apparatus was maintained by water jackets and buffer temperature was continuously monitored and adjusted to maintain hearts at 37° C. throughout perfusion.
A modified 24 g plastic intravenous cannula (Becton Dickson, Utah, USA) was inserted into the left ventricle via the apex of the heart using the normal introducer-needle. This cannula was subsequently attached to a SP844 piezo-electric pressure transducer (AD Instruments) to continuously monitor left ventricular pressure. Aortic pressure was continuously monitored through a side arm of the aortic cannula with a pressure transducer (Statham Model P23XL, Gould Inc., CA, USA). The heart was paced (Digitimer Ltd, Heredfordshire, England) at a rate of 300 bpm by means of electrodes attached to the aortic and pulmonary vein cannulae using supra-threshold voltages with pulses of 5-ms duration from the square wave generator.

diabetic Wistar rats = conditions: six months of treatment
[3] = test system: diabetic (STZ) and nondiabetic male Wistar rats; conditions: for Cu content of heart tissue / Fe content of heart tissue: trientine treated
Procedure: as §1
Cu, Fe and Zn in tissue digests were also determined at Hill Laboratories (Hamilton, New Zealand) using either a PE Sciex Elan-6000 or PE Sciex Elan-6100 DRC ICP-MS.
Heart: Following removal from the animal, the heart was cleaned of excess tissue, rinsed in buffer to remove excess blood, blotted dry and a wet ventricular weight recorded. Using titanium instruments a segment of left ventricular muscle was dissected and placed in a pre-weighed 5.0 ml polystyrene tube. The sample was freeze-dried overnight to constant weight before 0.45 ml of 69% Aristar grade HNO3 was added. The sample tube was heated in a water bath at 65° C. for 60 minutes. The sample was brought to 4.5 ml with Milli-Q H2O. The resulting solution was diluted 2:1 in order to reduce the HNO3 concentration below the maximum permitted for ICP-MS analysis.

[4] = test system: STZ diabetic and normal Wistar rats; conditions: for Heart weight / Heart weight (g)/BW (g) / Left Ventricular wall thickness / Left Ventricular wall thickness per BW: mean ± SD
[5] = test system: diabetic (STZ) and nondiabetic male Wistar rats; conditions: for Renal clearance Cu / Renal clearance Fe / Serum Cu / Serum Fe: trientine; for Renal clearance Cu / Renal clearance Fe: final hour of experiment; for Serum Cu / Serum Fe: terminal blood sample
Procedure: as §1
Serum: Terminal blood samples were centrifuged and serum treated and stored as per urine until analysis. From the trace metal content of serum from the terminal blood sample and urine collected over the final hour of the experiment, renal clearance was calculated using the following equation: renal clearance of trace metal=(a) the concentration of metal in urine (μg·μl^−1) times (b) the rate of urine flow (μl·min^−1), divided by (c) the concentration of metal in serum (μg·μl^−1)

[6] = STZ/D7 (diabetic, trientine weeks 7-13)
[7] = Sham/D7 (non-diabetic, trientine weeks 7-13)
[8] = diabetic and nondiabetic animals

Compound: NCCNCCNCCN [trientine, N,N′-Bis(2-aminoethyl)-1,2-ethanedi-amine]
- adverse cardiovascular effects ([1]; after acute administration, 0.1-100 mg·kg^−1 i.v.): no adverse cardiovascular effects
- body temperature and oxygen saturation ([1]; all animals throughout the experiment): remained stable
- time for MAP to return to pre-dose levels ([1]; highest dose (100 mg·kg^−1 i.v.)): ≤ 10 min
- maximum decrease in MAP ([1]; highest dose (100 mg·kg^−1 i.v.), for the 2 min following administration): 19±4 mm Hg
- MAP and HR during infusion ([1]; i.v. hourly increasing doses, all doses except the highest, diabetic and nondiabetic rats): no effect
- Percentage functioning at each afterload ([2]; STZ/D7 (diabetic, trientine weeks 7-13), afterload 55.9 mmHg): 100%
- Number surviving (aortic flow >0 mls/min) ([2]; STZ/D7 (diabetic, trientine weeks 7-13, N 8), afterload 55.9 mmHg): 8
- Number surviving (aortic flow >0 mls/min) ([2]; STZ/D7, afterload 61.8 mmHg): 8
- Percentage functioning at each afterload ([2]; STZ/D7, afterload 61.8 mmHg): 100%
- Number surviving (aortic flow >0 mls/min) ([2]; STZ/D7, afterload 67.7 mmHg): 8
- Percentage functioning at each afterload ([2]; STZ/D7, afterload 67.7 mmHg): 100%
- Number surviving (aortic flow >0 mls/min) ([2]; STZ/D7, afterload 71.4 mmHg): 8
- Percentage functioning at each afterload ([2]; STZ/D7, afterload 71.4 mmHg): 100%
- Number surviving (aortic flow >0 mls/min) ([2]; STZ/D7, afterload 77.2 mmHg): 8
- Percentage functioning at each afterload ([2]; STZ/D7, afterload 77.2 mmHg): 100%
- Number surviving (aortic flow >0 mls/min) ([2]; STZ/D7, afterload 83.1 mmHg): 8
- Percentage functioning at each afterload ([2]; STZ/D7, afterload 83.1 mmHg): 100%
- Number surviving (aortic flow >0 mls/min) ([2]; STZ/D7, afterload 88.3 mmHg): 7
- Percentage functioning at each afterload ([2]; STZ/D7, afterload 88.3 mmHg): 88%
- Number surviving (aortic flow >0 mls/min) ([2]; STZ/D7, afterload 94.9 mmHg): 6
- Percentage functioning at each afterload ([2]; STZ/D7, afterload 94.9 mmHg): 75%
- Number surviving (aortic flow >0 mls/min) ([2]; STZ/D7, afterload 100.8 mmHg): 5
- Percentage functioning at each afterload ([2]; STZ/D7, afterload 100.8 mmHg): 63%
- Number surviving (aortic flow >0 mls/min) ([2]; STZ/D7, afterload 106.7 mmHg): 1
- Percentage functioning at each afterload ([2]; STZ/D7, afterload 106.7 mmHg): 13%
- Percentage functioning at each afterload ([2]; Sham/D7 (non-diabetic, trientine weeks 7-13), afterload 55.9 mmHg): 100%
- Number surviving (aortic flow >0 mls/min) ([2]; Sham/D7 (non-diabetic, trientine weeks 7-13, N 11), afterload 55.9 mmHg): 11
- Number surviving (aortic flow >0 mls/min) ([2]; Sham/D7, afterload 61.8 mmHg): 11
- Percentage functioning at each afterload ([2]; Sham/D7, afterload 61.8 mmHg): 100%
- Number surviving (aortic flow >0 mls/min) ([2]; Sham/D7, afterload 67.7 mmHg): 11
- Percentage functioning at each afterload ([2]; Sham/D7, afterload 67.7 mmHg): 100%
- Number surviving (aortic flow >0 mls/min) ([2]; Sham/D7, afterload 71.4 mmHg): 11
- Percentage functioning at each afterload ([2]; Sham/D7, afterload 71.4 mmHg): 100%
- Number surviving (aortic flow >0 mls/min) ([2]; Sham/D7, afterload 77.2 mmHg): 11
- Percentage functioning at each afterload ([2]; Sham/D7, afterload 77.2 mmHg): 100%
- Number surviving (aortic flow >0 mls/min) ([2]; Sham/D7, afterload 83.1 mmHg): 11
- Percentage functioning at each afterload ([2]; Sham/D7, afterload 83.1 mmHg): 100%
- Number surviving (aortic flow >0 mls/min) ([2]; Sham/D7, afterload 88.3 mmHg): 11
- Percentage functioning at each afterload ([2]; Sham/D7, afterload 88.3 mmHg): 100%
- Number surviving (aortic flow >0 mls/min) ([2]; Sham/D7, afterload 94.9 mmHg): 11
- Percentage functioning at each afterload ([2]; Sham/D7, afterload 94.9 mmHg): 100%
- Number surviving (aortic flow >0 mls/min) ([2]; Sham/D7, afterload 100.8 mmHg): 11
- Percentage functioning at each afterload ([2]; Sham/D7, afterload 100.8 mmHg): 100%
- Number surviving (aortic flow >0 mls/min) ([2]; Sham/D7, afterload 106.7 mmHg): 9
- Percentage functioning at each afterload ([2]; Sham/D7, afterload 106.7 mmHg): 82%
- cardiac output ([2]; drug treated diabetic group, pre-load increased (5-20 cm H2O), after-load constant): restored to Sham values
- aortic and absolute coronary flows ([2]; drug treated diabetic group, pre-load increased, after-load constant): improved
- indicators for ventricular contraction and relaxation (+dP/dt, −dP/dt) ([2]; drug treated versus untreated diabetic group): significantly improved
- heart's ability to function at higher after-loads ([2]; drug treated versus untreated diabetic group, constant pre-load): greatly improved
- adverse effects on cardiac performance ([2]; drug treatment of normal animals (Sham/D7)): no adverse effects
- cardiac function overall ([2]; oral trientine for 7 weeks, Wistar rats with established diabetes of 6 weeks duration): global improvement in cardiac function
- trientine treated diabetic hearts still functioning ([2]; when 50% of the untreated diabetic hearts had failed): about 90%
- protection of hearts from development of diabetic damage (cardiomyopathy) as judged by histology (diabetic Wistar rats): appears to protect
- effect of drug on cardiac content of iron and copper ([3]; acute i.v. administration): nor any effect of drug
- content of copper in cardiac tissue, diabetic versus nondiabetic animals ([3]; animals receiving saline or trientine): no significant difference
- Cu content of heart tissue ([3]; diabetic): 24.7 ± 1.5 μg · g^−1 dry tissue
- Fe content of heart tissue ([3]; diabetic): 186 ± 46 μg · g^−1 dry tissue
- Cu content of heart tissue ([3]; nondiabetic): 27.1 ± 1.0 μg · g^−1 dry tissue
- Fe content of heart tissue ([3]; nondiabetic): 235 ± 39 μg · g^−1 dry tissue
- Heart weight [4, 6]: 1.18 ± 0.24 g
- Heart weight (g)/BW (g) [4, 6]: 0.0041 ± 0.0005^
- Left Ventricular wall thickness [4, 6]: 3.79 ± 0.52 mm
- Left Ventricular wall thickness per BW [4, 6]: 0.0127 ± 0.0027^ (mm)/(g)
- Heart weight [4, 7]: 1.58 ± 0.05 g
- Heart weight (g)/BW (g) [4, 7]: 0.0028 ± 0.0001
- Left Ventricular wall thickness [4, 7]: 4.03 ± 0.1 mm
- Left Ventricular wall thickness per BW [4, 7]: 0.0072 ± 0.0003 (mm)/(g)
- heart:body weight ratio, treated versus untreated diabetic animals ([4]; diabetic animals, trientine weeks 7-13): small but significant improvement
- ventricular wall thickness:bodyweight ratio, treated versus non-treated diabetics ([4]; did not reach significance): trend toward improved
- blood glucose profile, treated versus untreated comparison group ([4]; either treated group (STZ/D7, Sham/D7), p=ns): no difference
- serum content or renal clearance of iron, effect of drug [5, 8]: no effect
- serum copper content, drug versus saline [5, 8]: no significant difference
- renal clearance of copper, drug versus saline ([5]; diabetic animals): significant increase
- Renal clearance Cu ([5]; diabetic, n = 6): *28.5 ± 4.8 μl · min^−1
- Renal clearance Fe ([5]; diabetic, n = 6): 0.25 ± 0.07 µL/min
- Serum Cu ([5]; diabetic, n = 6): 7.56 ± 0.06 μg · μl^−1 × 10^−4
- Serum Fe ([5]; diabetic, n = 6): 35.7 ± 7.98 μg · μl^−1 × 10^−4
- increase in renal clearance of copper, drug versus saline ([5]; nondiabetic animals (P=0.056)): not statistically significant
- Renal clearance Cu ([5]; nondiabetic, n = 4): 19.9 ± 6.4 µL/min
- Renal clearance Fe ([5]; nondiabetic, n = 4): 0.46 ± 0.22 µL/min
- Serum Cu ([5]; nondiabetic, n = 4): 7.11 ± 0.41 μg · μl^−1 × 10^−4
- Serum Fe ([5]; nondiabetic, n = 4): 33.6 ± 1.62 μg · μl^−1 × 10^−4
